This passage reports IC50 and Activity results from ChEMBL document CHEMBL2029318, “Synthesis and SAR of selective small molecule neuropeptide Y Y2 receptor antagonists” (Bioorg Med Chem Lett, 2012).

Holding throughout (type): functional
Assay [1] deals with T1, Neuropeptide Y receptor type 2 (Homo sapiens, UniProt P49146).
T1 sequence (P49146 whole entry): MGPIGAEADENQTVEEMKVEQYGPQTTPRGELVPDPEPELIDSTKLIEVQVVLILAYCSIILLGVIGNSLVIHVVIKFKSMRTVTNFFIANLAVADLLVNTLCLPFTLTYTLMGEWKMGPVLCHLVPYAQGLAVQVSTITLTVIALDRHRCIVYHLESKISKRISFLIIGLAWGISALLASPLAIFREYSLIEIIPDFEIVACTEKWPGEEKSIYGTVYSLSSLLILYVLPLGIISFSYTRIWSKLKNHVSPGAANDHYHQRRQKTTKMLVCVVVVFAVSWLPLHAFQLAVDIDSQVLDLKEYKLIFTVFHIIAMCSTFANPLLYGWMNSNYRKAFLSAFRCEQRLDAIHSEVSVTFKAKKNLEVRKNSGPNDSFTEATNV
In words: Partial antagonist activity at neuropeptide Y receptor Y2.

Assay [2] concerns the target T2, Neuropeptide Y receptor type 1 (Homo sapiens) (UniProt P25929).
T2 sequence (whole entry): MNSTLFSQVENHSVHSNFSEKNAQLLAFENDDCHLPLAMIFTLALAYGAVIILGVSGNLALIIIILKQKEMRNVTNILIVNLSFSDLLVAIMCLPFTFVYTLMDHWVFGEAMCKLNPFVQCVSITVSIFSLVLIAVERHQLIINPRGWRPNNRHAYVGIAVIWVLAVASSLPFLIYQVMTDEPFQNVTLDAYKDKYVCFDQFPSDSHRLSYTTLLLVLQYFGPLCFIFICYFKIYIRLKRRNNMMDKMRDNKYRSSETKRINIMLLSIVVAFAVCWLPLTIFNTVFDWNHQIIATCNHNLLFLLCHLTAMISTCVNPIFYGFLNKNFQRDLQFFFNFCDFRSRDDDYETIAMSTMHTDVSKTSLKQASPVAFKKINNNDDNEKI
Put plainly: Antagonist activity at neuropeptide Y receptor Y1 at 10 uM.

Assay [3] addresses T3, Neuropeptide Y receptor type 2 (Homo sapiens) (UniProt P49146).
T3 sequence (whole entry): T1 sequence (P49146 whole entry)
In words: Antagonist activity at neuropeptide Y receptor Y2 at 10 uM.

Activity calls are given as the source filed them.

Take `CCOC(=O)c1cccc(NC(=S)N2CCC(C(O)(c3ccccc3)c3ccccc3)CC2)c1`: inhibition in assay [1] was half-maximal at 0.238 µM (IC50). Besides, the result in assay [2] was inactive.
`CCOc1ccc(NC(=S)N2CCC(=C(c3ccccc3)c3ccccc3)CC2)cc1`: the result in assay [2] and in assay [3] was inactive.
Take `CCOc1ccc(NC(=S)N2CCC(C(O)(c3ccccc3)c3ccccc3)CC2)c(C)c1`: the result in assay [2] and in assay [3] was inactive.
Turning to `CN(C)S(=O)(=O)c1ccc(NC(=S)N2CCC(C(O)(c3ccccc3)c3cccnc3)CC2)cc1` (stereo not drawn), the outcome in assay [2] and in assay [3] was inactive.
Turning to `CCOc1ccc(NC(=S)N2CCC(C(O)(c3ccccc3)c3ccccc3)CC2)c(C(F)(F)F)c1`, the result in assay [2] and in assay [3] was inactive.
`CN(C)S(=O)(=O)c1ccc(NC(=S)N2CCC(C(O)(c3ccccc3)c3ccoc3)CC2)cc1` (stereo not drawn): the result in assay [2] and in assay [3] was inactive.
Take `OC(c1ccccc1)(c1ccccc1)C1CCN(C(=S)Nc2ccc(C(F)(F)F)cc2Cl)CC1`: the result in assay [2] and in assay [3] was inactive.
Take `CCOc1ccc(NC(=S)N2CCC(C(O)(c3ccccc3)C3CCCCC3)CC2)cc1` (stereo not drawn): the result in assay [2] and in assay [3] was inactive.
In assay [1], `COc1ccc(NC(=S)N2CCC(C(O)(c3ccccc3)c3ccccc3)CC2)cc1C(F)(F)F` returned an IC50 of 6.08 µM. Also, in assay [2], the outcome was inactive.
Consider `CCC(=O)Nc1ccc(OC(=O)N2CCC(C(O)(c3ccccc3)c3ccccc3)CC2)cc1`, for which the result in assay [2] and in assay [3] was inactive.
For `CCOc1ccc(NC(=S)N2CCC(C(O)c3ccccc3)CC2)cc1` (stereo not drawn), the outcome in assay [2] and in assay [3] was inactive.
For the molecule `CCN(CC)S(=O)(=O)c1cccc(OC(=O)N2CCC(C(O)(c3ccccc3)c3ccccc3)CC2)c1`, the result in assay [2] and in assay [3] was inactive.
With `CN(C)S(=O)(=O)c1ccc(NC(=S)N2CCN(C3c4ccccc4CCc4ccccc43)CC2)cc1`, the result in assay [2] and in assay [3] was inactive.
Regarding `COC(c1ccccc1)(c1ccccc1)C1CCN(C(=S)Nc2ccc(S(=O)(=O)N(C)C)cc2)CC1`, the result in assay [2] and in assay [3] was inactive.
In assay [1], `COc1cccc(NC(=S)N2CCC(C(O)(c3ccccc3)c3ccccc3)CC2)c1` gave an IC50 of 8.16 µM. In addition, the outcome in assay [2] was inactive.
The like results for `OC(c1ccccc1)(c1ccccc1)C1CCN(C(=S)Nc2ccc(N3CCCCC3)cc2)CC1` were, in that order, 0.271 µM and “inactive”.
As for `CC(=O)Nc1ccc(OC(=O)N2CCC(C(O)(c3ccccc3)c3ccccc3)CC2)cc1`, the outcome in assay [2] and in assay [3] was inactive.
Take `CCN(CC)C(=O)c1cccc(OC(=O)N2CCC(C(O)(c3ccccc3)c3ccccc3)CC2)c1`: the result in assay [2] and in assay [3] was inactive.
For `OC(c1ccccc1)(c1ccccc1)C1CCN(C(=S)Nc2cccc(C(F)(F)F)c2)CC1`, the result in assay [2] and in assay [3] was inactive.

As a reminder, the IC50 is the concentration at which inhibition is half-maximal. Lower therefore signals greater potency in that assay.
